The test system of assay [1] is hippocampal CA3 pyramidal neurons. Kind of assay: Whole-cell voltage clamp recordings of sEPSCs in offspring after maternal pretreatment. The format is in vivo, rat. The settings on record: P15 rats, maternal SSR pretreatment (1 mg/kg in drinking water); result in words. As for the experimental part:
Standard whole-cell recordings were performed in coronal neocortical rat or mouse brain slices at room temperature (20-22° C.) from the soma of hippocampal CA3 neurons using an EPC-10 (HEKA Elektronik, Germany) amplifier and filtered at 3-10 kHz. The internal solution contained (in mM): 130 K-gluconate, 10 Na-gluconate, 4 NaCl, 4 MgATP, 4 phosphocreatine, 10 HEPES, and 0.3 GTP (pH 7.3 with KOH). Biocytin (final concentration 0.3-0.5%) was added to the pipette solution to label the neurons from which recordings were obtained. Neurons were visualized by using infrared DIC video microscopy. Spontaneous postsynaptic currents were recorded for […] at the reversal potentials for […] currents (−70 mV). It should be specifically noted that all recordings were made in normal ACSF (1.3 mM MgCl2). Stored data were analyzed using the Mini Analysis 6.0.3 (Synaptosoft Inc., Chapell Hill, N.C.) and Origin (MicroCal, Northampton, Mass.) software. To minimize potential sampling bias, the pups from at least three deliveries for each condition were studied. Data are expressed as mean±S.E.M.
Bumetanide (10 μM), Oxytocin (1 μM) and Isoguvacine (2 μM) were directly added to the perfusion solutions. Bumetanide pretreatment (2-2.5 mg/kg) was given to the dams in drinking water. All drugs used were purchased from Sigma. […]

Assay [2] has as its system Valproate rat model of autism. The experiment in a line: In vivo EEG recordings in the CA3 area of hippocampus of head-restrained rats. The conditions noted are these: VPA rats P13-15. The method, then:
(§1) Time-mated female Wistar rats at gestational day E7-8 were housed under standard laboratory conditions. The in utero valproic acid (VPA) rodent model of autism spectrum disorders has been previously described in detail. Briefly, the sodium salt of VPA (Sigma-Aldrich) was dissolved in physiological saline solution to a concentration of 300 mg/ml. Pregnant rats received a single intra-peritoneal dose of 600 mg/kg on gestational day 12 (E12). The control dams received a single similar volume injection of saline at the same gestational time-point. Dams were housed individually and allowed to raise their own litters. The offspring were used for experiments on embryonic day 20 (E20) and postnatal (P) days 0, 2, 4, 7, 15 and 30 (after being weaned at P23). Experiments were carried out on offspring of either sex.
Head-fixed rat pups of age P13-P15 were prepared for extracellular recording under isoflurane anesthesia. The skin and periosteum were removed from the skull, which was then covered by glue and dental cement except for a 4-9 mm^2 window above the somatosensory cortex from one or two hemispheres for the silicon probe penetration (4.0-4.2 mm lateral to midline and 2.2-2.5 mm caudal to bregma) and for the reference electrode (1.0-1.5 mm lateral to midline and 6.0-6.5 mm caudal to bregma). The rat was positioned in the stereotaxic apparatus. A 1 mm-diameter burr hole was drilled in the skull; the dura was cut and removed. Recordings were made 1 h after recovery from anesthesia. Pups were kept restrained for <3 h and were closely monitored for signs of stress and to ensure that they spent a normal proportion of their time sleeping. The outside temperature was maintained between 35 and 36° C. The animals were kept in low-light conditions throughout all experiments. 16-site linear silicone probe (NeuroNexus Technologies) coupled to a direct-current amplifier (Molecular Devices) and dunked previously in fluorescent dye (DiI, Invitrogen) was slowly penetrated via the hole at […] depth under the angle 30° in the coronal plane. EEGs were recorded during 2 hours, using a 16-channel amplifier (A-M System, Inc.) and digitized at 5 kHz using Axoscope software (Molecular Deviced). Recordings were amplified and high-pass filtered at 0.3 Hz in Axoscope. Silicone probe location was verified postmortem via dye localization. To quantify the frequency band integral power the traces were band-pass filtered at frequency bands […]) θ-(4-7 Hz), α-(7-12 Hz), β-(12-25 Hz), Low γ-(25-60 Hz), High γ-(60-120 Hz) and Fast oscillations-(120-500 Hz)). Fast Fourier Transform (FFT) was applied with Clampfit (Molecular Devices). Integrals of FFT power spectra were taken and averaged with OriginPro (OriginLab Corporation).
(§2) Bumetanide (10 μM), Oxytocin (1 μM) and Isoguvacine (2 μM) were directly added to the perfusion solutions. Bumetanide pretreatment (2-2.5 mg/kg) was given to the dams in drinking water. All drugs used were purchased from Sigma. SSR126768A (Sanofi-Synthelabo) pretreatment (1 mg/kg) was given to the dams in drinking water.

Assay [3] has as its system hippocampal CA3 pyramidal cells. The experiment in a line: DFGABA in hippocampal CA3 pyramidal cells of offspring after in utero VPA / maternal bumetanide pretreatment. The conditions noted are these: VPA rats (dams 600 mg/kg VPA i.p. at E12). The format is in vivo, rat. As for the experimental part: as §1
(§3) Experiments were performed on fetuses and neonatal rat pups. We removed E20 rats from deeply anesthetized dams [subcutaneous injection of a mixture of xylazine (Rompun 2%; used at 0.05%) and ketamine (Imalgene 1000 used at 50 g/l)]. Hippocampal slices ([…] thick) were prepared using a Microm tissue slicer (International GmbH, Germany) as described previously (Tyzio et al. 2006 Science 314, 1788; Tyzio et al, 2008, Eur J. Neurosci. 27(10):2515-28). Slices were kept in oxygenated (95% O2/5% CO2) artificial cerebrospinal fluid (ACSF) of the following composition (in mM): NaCl 126, KCl 3.5, CaCl2 2.0, MgCl2 1.3, NaHCO3 25, NaH2PO4 1.2 and glucose 11 (pH 7.4) at room temperature (20-22° C.) at least 1 hour before use.
For recordings, slices were placed into a conventional fully submerged chamber superfused with ACSF at a rate of 2-3 ml/min at room temperature. Patch clamp recordings from visually identified CA3 pyramidal cells in cell-attached configuration were performed using EPC-10 amplifier (HEKA Elektronik Dr. Schulze GmbH, Lambrecht/Pfalz, Germany). Patch pipette solution for recordings of single GABAA channels contained (in mM): NaCl 120, KCl 5, TEA-Cl 20, 4-aminopyridine 5, CaCl2 0.1, MgCl2 10, glucose 10, Hepes-NaOH 10 buffered to pH 7.2-7.3 and GABA 2 μM. Analysis of currents through single channels and current-voltage relationships were performed using Clampfit 9.2 (Axon Instruments, Union City, Calif.). Recordings were digitized (10 kHz) online with Digidata-1200 interface card (Axon Instruments, Union City, Calif.) and analyzed offline with Axon package, MiniAnalysis (S (Synaptsoft, Decatur, Ga.), and Origin (Microcal Software, Northampton, Mass.).
as §2
If the polarity of GABA actions at delivery produces long terms effects in offsprings, then restoring low [Cl^−]i and inhibitory GABA at delivery might restore physiological parameters in juvenile rodents. To test this hypothesis, pregnant females were treated orally 1 day before delivery with bumetanide (2-2.5 mg/kg in drinking water) and juvenile offspring neurons recorded at P15. […] In VPA rats, GABAergic inputs are excitatory and contribute to hyperexcitability of the network. Bumetanide decreases [Cl^−]i and consequently reduces contribution of excitatory GABAergic inputs in the overall network activity.

The test system of assay [4] is Valproate rat model of autism. Kind of assay: Isolation-induced ultrasonic vocalizations. The settings on record: P4 VPA rats. The format is in vivo. As for the experimental part:
as §1
To induce ultrasonic vocalizations, […], and were placed into an isolation box (23×28×18 cm) located inside a sound attenuating isolation cubicle (54×57×41 cm; Coulbourn Instruments, Allentown, Pa., USA), and evaluated for ultrasonic vocalizations during a three minutes test. An ultrasound microphone (Avisoft UltraSoundGate Condenser microphone capsule CM16/CMPA, Avisoft Bioacoustics, Berlin, Germany), placed in the roof of the box, was sensitive to frequencies of 10 to 250 kHz. Vocalizations were recorded using the Avisoft Recorder software (version 4.2) with a sampling rate of 250 kHz in 16 bit format. For acoustical analysis, recordings were transferred to SASLab Pro (version 5.2; Avisoft Bioacoustics) and a fast Fourier transformation was conducted (512 FFT-length, 100% frame, Hamming window and 75% time window overlap). The accuracy of call detection was verified manually by an educated user. A Pearson correlation coefficient was computed to assess the relationship between Automatic and Manual analysis. There was 0.99 correlation between the two variables.
as §2

A further assay relates to hippocampal slices. Kind of assay: Effects of isoguvacine on spike frequency, extracellular field potential recordings in hippocampal slices. The format is cell-based, rat. The settings on record: P15. As for the experimental part: as §3
Extracellular field potentials and multi-unit activity (MUA) recordings Recording were made in the hippocampal slices using tungsten wire electrodes (diameter: 50 μm, California Fine Wire, Grover Beach, Calif.) and a low-noise multichannel DAM-8A amplifiers (WPI, GB; […]; gain: ×1000). The signals were digitized using an analogue-to-digital converter (Digidata 1440A, Axon Instruments, USA). pCLAMP 10.1, Clampfit 10.1 (Axon Instruments, USA), MiniAnalysis 6.03 (Synaptosoft, Decatur, Calif.) and Origin 7.5 (Microcal Software, USA) programs were used for the acquisition and analysis of the synaptic activities. Sampling interval per signal was 100 microseconds (10 kHz).
as §2

For another assay, the system named is CA3 pyramidal cells. Kind of assay: Effect of isoguvacine on spontaneous spiking, cell-attached recordings. The settings on record: result in words. The format is cell-based, rat. The method, then:
as §3
For recordings, slices were placed into a conventional fully submerged chamber superfused with ACSF at a rate of 2-3 ml/min at room temperature. Patch clamp recordings from visually identified CA3 pyramidal cells in cell-attached configuration were performed using EPC-10 amplifier (HEKA Elektronik Dr. Schulze GmbH, Lambrecht/Pfalz, Germany). […] Recordings were digitized (10 kHz) online with Digidata-1200 interface card (Axon Instruments, Union City, Calif.) and analyzed offline with Axon package, MiniAnalysis (S (Synaptsoft, Decatur, Ga.), and Origin (Microcal Software, Northampton, Mass.). […]

Where “and” joins values, the source holds several entries; their conditions need not be identical. Equal values may be shown once. Entries after “also recorded” stand apart in the source; their conditions may differ.

Turning to `CCN(Cc1cccnc1)C(=O)c1ccc(Cl)c([C@]2(C)C(=O)N(Cc3ccc(OC)cc3OC)c3ccc(Cl)cc32)c1` [SSR], the “spontaneous activity of neuronal networks (sEPSCs)” value in assay [1] is listed as “increases”.

As for `CCCC(CCC)C(=O)O` [VPA, valproic acid], the “Integral power spectra of EEG recordings, mean ± S.E.M.” value in assay [2] (frequency band 0.5-4 Hz) is 164.05 ± 39.44; in assay [2] (frequency band 4-7 Hz), 42.01 ± 12.03; in assay [2] (frequency band 7-12 Hz) it was 16.52 ± 4.32; in assay [2] (frequency band 12-25 Hz) it was 16.56 ± 4.78; in assay [2] (frequency band 25-60 Hz) it was 2.41 ± 0.62; in assay [2] (frequency band 60-120 Hz) it was 0.74 ± 0.17. Further, in assay [2] (frequency band 120-500 Hz), the “Integral power spectra of EEG recordings, mean ± S.E.M.” value was found to be 1.83 ± 0.42. Moreover, the “DFGABA (mV), mean ± S.E.” value in assay [3] (age E20) was 8.5 ± 0.6 (n = 9) mV; in assay [3] (age P0), 8.2 ± 1.3 (n = 29) mV; in assay [3] (age P2), 11.7 ± 1.4 (n = 24) mV; in assay [3] (age P7), 9.7 ± 1.1 (n = 26) mV; in assay [3] (age P15), 10.2±1.0 mV and 10.2 ± 1 (n = 25 mV and 10.2 ± 1.0 (n = 25) mV; in assay [3] (age P30), 8.7 ± 0.8 (n = 25) mV. Moreover, the “Number of calls, isolation-induced USVs mean ± S.E.M” value in assay [4] is 1 ± 0.5 (n = 26). The “Total duration of calls, isolation-induced USVs mean ± S.E.M” value in assay [4] is recorded as 0.04 ± 0.02 (n = 26).

Take `O=C(O)C1=CCNCC1` [isoguvacine]: the “Effects of isoguvacine on frequency of spikes in extracellular recordings (% of control), mean ± S.E.” value was 213.5 ± 16.3 (n = 6), P < 0.001 % of control with hippocampal slices (VPA rats); 213.5±16.3 % of control with hippocampal slices (VPA rats, listed as Isoguvacine); 38.9 ± 5.1 (n = 3), P < 0.001 % of control in the assay on hippocampal slices (control rats); 38.9±5.1 % of control in the assay with hippocampal slices (control rats, listed as Isoguvacine). Besides, the “spike frequency in cell-attached recordings” value is reported as “inhibited or did not affected” in the assay with CA3 pyramidal cells (isoguvacine 2 μM, naive neurons, P0); “excitatory action; also recorded: increased” in the assay on CA3 pyramidal cells (isoguvacine, VPA neurons, P0 and P15).

Values taken from patent US9592214B2, “Compounds for the treatment of autism in a baby child” (INSERM (INSTITUT NATIONAL DE LA SANTE ET DE LA RECHERCHE …, priority 2010, dated 2017).
